# Reference: patent US8952021B2, “Compounds for the prevention and treatment of cardiovascular disease” (Resverlogix Corp., priority 2009, dated 2015)
# Tested on: ApoA-I mRNA
# Test: Quantification of ApoA-I mRNA in HepG2 cells (real-time PCR)
# Type: cell-based
# Parameters: key: Active: An active compound was defined as one that caused a ≧20% increase in ApoA-I mRNA at a concentration less than or equal to 100 μM
# Conditions: fold induction relative to DMSO control, concentration less than or equal to 100 μM
# Method: In this example, ApoA-I mRNA in tissue culture cells was quantitated to measure the transcriptional up-regulation of ApoA-I when treated with a compound of the invention.
# HepG2 cells (approximately 2×10^5 per well) were placed in a 24-well plate in approximately 400 μL MEM, supplemented with 0.5% (v/v) FBS, 24 h before addition of the compound of interest. At time of harvesting, the spent media was removed from the HepG2 cells and immediately placed on ice (for immediate use) or at −80° C. (for future use) in ApoA-I and albumin ELISAs. The cells remaining in the plate wells were rinsed in 200 μL PBS. PBS was carefully removed to avoid removing any loosely attached cells.
# Once the PBS was removed, 85 μL cell lysis solution was added the cells in each well and incubated for 5-10 minutes at room temperature, to allow for complete cell lysis and detachment. mRNA was then prepared using the “mRNA Catcher PLUS plate” from Invitrogen, according to the protocol supplied. After the last wash, as much wash buffer as possible was aspirated without allowing the wells to dry. Elution Buffer (E3, 80 μL) was then added to each well. mRNA was then eluted by incubating the mRNA Catcher PLUS plate with Elution Buffer for 5 minutes at 68° C. and then immediately placing the plate on ice.
# The eluted mRNA isolated was then used in a one-step real-time […] reaction, using components of the Ultra Sense Kit together with Applied Biosystems primer-probe mixes. Real-time PCR data was analyzed, using the Ct values, to determine the fold induction of each unknown sample, relative to the control (that is, relative to the control for each independent DMSO concentration).
# An active compound was defined as one that caused a ≧20% increase in ApoA-I mRNA at a concentration less than or equal to 100 μM.
row,Structure (SMILES),Effect on ApoA-I mRNA levels
1,"CCC(C)c1ccc(-n2c(-c3cc(C)c(OCCO)c(C)c3)nc3ccccc3c2=O)cc1 (stereo not drawn) [1 and 2, 3-(4-sec-butylphenyl)-2-(4-(2-hydroxyethoxy)-3,5-dimethylphenyl)quinazolin-4(3H)-one]",Active
2,"CCC(C)c1ccc(-n2c(-c3cc(C)c(OCCO)c(C)c3)nc3cc(F)ccc3c2=O)cc1 (stereo not drawn) [Example 4, 3-(4-sec-butylphenyl)-7-fluoro-2-(4-(2-hydroxyethoxy)-3,5-dimethylphenyl)quinazolin-4(3H)-one]",Active
3,"CCC(C)c1ccc(-n2c(-c3cc(C)c(OCCO)c(C)c3)nc3ccc(F)cc3c2=O)cc1 (stereo not drawn) [Example 9, 3-(4-sec-butylphenyl)-6-fluoro-2-(4-(2-hydroxyethoxy)-3,5-dimethylphenyl)quinazolin-4(3H)-one]",Active
4,"Cc1cc(-c2nc3ccccc3c(=O)n2-c2ccc(C(F)(F)F)cc2)cc(C)c1OCCO [Example 11, 2-(4-(2-hydroxyethoxy)-3,5-dimethylphenyl)-3-(4-(trifluoromethyl)phenyl)quinazolin-4(3H)-one]",Active
5,"Cc1cc(-c2nc3ccccc3c(=O)n2-c2ccc(N3CCOCC3)cc2)cc(C)c1OCCO [Example 21, 2-(4-(2-hydroxyethoxy)-3,5-dimethylphenyl)-3-(4-morpholinophenyl)quinazolin-4(3H)-one]",Active
6,"Cc1cc(-c2nc3ccccc3c(=O)n2-c2ccc(C(C)(C)C)cc2)cc(C)c1OCCO [Example 22, 3-(4-tert-butylphenyl)-2-(4-(2-hydroxyethoxy)-3,5-dimethylphenyl)quinazolin-4(3H)-one]",Active
7,"CC(=O)Nc1ccc(-n2c(-c3cc(C)c(OCCO)c(C)c3)nc3ccccc3c2=O)cc1 [Example 23, N-(4-(2-(4-(2-hydroxyethoxy)-3,5-dimethylphenyl)-4-oxoquinazolin-3(4H)-yl)phenyl)acetamide]",Active
8,"Cc1cc(-c2nc3ccccc3c(=O)n2-c2ccc(NC(=O)C(C)C)cc2)cc(C)c1OCCO [Example 24, N-(4-(2-(4-(2-hydroxyethoxy)-3,5-dimethylphenyl)-4-oxoquinazolin-3(4H)-yl)phenyl)isobutyramide]",Active
9,"COC(=O)c1ccc(-n2c(-c3cc(C)c(OCCO)c(C)c3)nc3ccccc3c2=O)cc1 [Example 25, methyl 4-(2-(4-(2-hydroxyethoxy)-3,5-dimethylphenyl)-4-oxoquinazolin-3(4H)-yl)benzoate]",Active
10,"Cc1cc(-c2nc3ccccc3c(=O)n2-c2ccc(C3CCCCC3)cc2)cc(C)c1OCCO [Example 26, 3-(4-cyclohexylphenyl)-2-(4-(2-hydroxyethoxy)-3,5-dimethylphenyl)quinazolin-4(3H)-one]",Active
11,"Cc1cc(-c2nc3ccccc3c(=O)n2-c2ccc(NC=O)cc2)cc(C)c1OCCO [Example 27, N-(4-(2-(4-(2-hydroxyethoxy)-3,5-dimethylphenyl)-4-oxoquinazolin-3(4H)-yl)phenyl)formamide]",Active
12,"Cc1cc(-c2nc3ccccc3c(=O)n2-c2ccc(N)cc2)cc(C)c1OCCO [Example 28, 3-(4-aminophenyl)-2-(4-(2-hydroxyethoxy)-3,5-dimethylphenyl)quinazolin-4(3H)-one]",Active
13,"Cc1cc(-c2nc3ccccc3c(=O)n2-c2ccc(NS(C)(=O)=O)cc2)cc(C)c1OCCO [Example 29, N-(4-(2-(4-(2-hydroxyethoxy)-3,5-dimethylphenyl)-4-oxoquinazolin-3(4H)-yl)phenyl)methanesulfonamide]",Active
14,"Cc1cc(-c2nc3ccccc3c(=O)n2-c2ccc(NS(=O)(=O)C(C)C)cc2)cc(C)c1OCCO [Example 31, N-(4-(2-(4-(2-hydroxyethoxy)-3,5-dimethylphenyl)-4-oxoquinazolin-3(4H)-yl)phenyl)propane-2-sulfonamide]",Active
15,"Cc1cc(-c2nc3ccccc3c(=O)n2-c2ccc(N(C)C)cc2)cc(C)c1OCCO [Example 32, 3-(4-(dimethylamino)phenyl)-2-(4-(2-hydroxyethoxy)-3,5-dimethylphenyl)quinazolin-4(3H)-one]",Active
16,"CCC(C)c1ccc(-n2c(-c3ccc(OCCO)c(C)c3)nc3ccccc3c2=O)cc1 (stereo not drawn) [Example 33, 3-(4-sec-butylphenyl)-2-(4-(2-hydroxyethoxy)-3-methylphenyl)quinazolin-4(3H)-one]",Active
17,"Cc1cc(-c2nc3ccccc3c(=O)n2-c2ccc(Cl)cc2)ccc1OCCO [Example 34, 3-(4-chlorophenyl)-2-(4-(2-hydroxyethoxy)-3-methylphenyl)quinazolin-4(3H)-one]",Active
18,"CCC(C)c1ccc(-n2c(-c3cccnc3)nc3ccccc3c2=O)cc1 (stereo not drawn) [Example 35, 3-(4-sec-butylphenyl)-2-(pyridin-3-yl)quinazolin-4(3H)-one]",Active
19,"O=c1c2ccccc2nc(-c2cnc3ccccc3c2)n1-c1ccc(Cl)cc1 [Example 36, 3-(4-chlorophenyl)-2-(quinolin-3-yl)quinazolin-4(3H)-one]",Active
20,"CCC(C)c1ccc(-n2c(-c3cncc(F)c3)nc3ccccc3c2=O)cc1 (stereo not drawn) [Example 37, 3-(4-sec-butylphenyl)-2-(5-fluoropyridin-3-yl)quinazolin-4(3H)-one]",Active
21,"O=c1c2ccccc2nc(-c2ccc(Cl)nc2)n1-c1ccc(Cl)cc1 [Example 38, 3-(4-chlorophenyl)-2-(6-chloropyridin-3-yl)quinazolin-4(3H)-one]",Active
22,"CCC(C)c1ccc(-n2c(-c3ccc(Cl)nc3)nc3ccccc3c2=O)cc1 (stereo not drawn) [Example 39, 3-(4-sec-butylphenyl)-2-(6-chloropyridin-3-yl)quinazolin-4(3H)-one]",Active
23,"CCC(C)c1ccc(-n2c(-c3ccc(OC)nc3)nc3ccccc3c2=O)cc1 (stereo not drawn) [Example 40, 3-(4-sec-butylphenyl)-2-(6-methoxypyridin-3-yl)quinazolin-4(3H)-one]",Active
24,"O=c1c2ccccc2nc(-c2ccc(Br)nc2)n1-c1ccc(Cl)cc1 [Example 41, 2-(6-bromopyridin-3-yl)-3-(4-chlorophenyl)quinazolin-4(3H)-one]",Active
25,"CCC(C)c1ccc(-n2c(-c3ccc(Br)nc3)nc3ccccc3c2=O)cc1 (stereo not drawn) [Example 42, 2-(6-bromopyridin-3-yl)-3-(4-sec-butylphenyl)quinazolin-4(3H)-one]",Active
26,"CCN(CC)c1ccc(-c2nc3ccccc3c(=O)n2-c2ccc(Cl)cc2)cn1 [Example 43, 3-(4-chlorophenyl)-2-(6-(diethylamino)pyridin-3-yl)quinazolin-4(3H)-one]",Active
27,"CCC(C)c1ccc(-n2c(-c3ccc(N(CC)CC)nc3)nc3ccccc3c2=O)cc1 (stereo not drawn) [Example 44, 3-(4-sec-butylphenyl)-2-(6-(diethylamino)pyridin-3-yl)quinazolin-4(3H)-one]",Active
